Data taken from US20250041302A1, “PROLYL HYDROXYLASE DOMAIN INHIBITOR FOR TREATING HEMORRHAGIC OR BURN SHOCK” (THE GOVERNMENT OF THE UNITED STATES, AS REPRESENTED BY THE …, priority 2022, published 2025).
“Also recorded” adds a separate entry of the source.

Key:
[1] = tested on: rats (polytrauma with 40% hemorrhage); assay: HOE140 on tissue wet/dry weight ratio after polytrauma with 40% hemorrhage and lactated Ringer's resuscitation (FIG. 12); format: in vivo; conditions: for wet/dry weight ratio, brain: HOE140 0.4 mg/kg i.v. bolus 45 min after trauma, tissues 1 hour after resuscitation, vehicle 4.735±0.024
Experimental: FIG. 12. The effect of bradykinin receptor antagonist (HOE140) on tissue water content/vascular permeability in the brain, lung and skeletal muscle after polytrauma/hemorrhage and resuscitation of lactate Ringer's fluid (20% of Blood Volume). HOE140 or vehicle were given intravenously in rats (n=4/group) at 45 min after trauma (15 min prior to resuscitation of lactate Ringer's fluid). The tissues were harvested 2 hours after trauma. Values represent as means±SD. *:p<0.05 as compared with vehicle.
HOE140 (0.4 mg/kg) was administrated as a bolus intravenously at 45 min after trauma (15 min prior to Lactated Ringer's fluid resuscitation). At 1 hour after resuscitation, the rats were euthanized and the tissues were harvested for wet weight, and then transferred into the oven at 60° C. for 14 days to be weighed as dry weight. The wet/dry ratio represented the water content of the tissue.
Icatibant (HOE140), which is a selective competitive antagonist at the bradykinin type 2 (B2) receptor, is a synthetic decapeptide with a structure similar to bradykinin, but with 5 nonproteinogenic amino acids. It consists of ten amino acids in the following sequence: H-D-Arg-Arg-Pro-Hyp-Gly-Thi-Ser-D-Tic-Oic-Arg-OH. HOE140 (0.4 mg/kg in lactate Ringer's fluid) was administrated as a bolus intravenously at 45 min after trauma (15 min prior to lactated Ringer's fluid resuscitation (20% of Blood Volume)). At 1 hour after resuscitation, the rats were euthanized and the tissues were harvested for wet weight, and then transferred into the oven at 60° C. for 14 days to be weighed as dry weight. The wet/dry ratio represented the water content of the tissue.

[2] = tested on: rats with polytrauma and hemorrhage; assay: TXA in polytrauma/hemorrhage (FIG. 11); format: in vivo
Experimental: FIG. 11. The effect of anti-fibrinolytic agent (tranexamic acid; TXA) on polytrauma/hemorrhage. Single dose of TXA (10 mg/kg) given prior to trauma. (FIG. 11A) Prothrombin time. Values represent as means±SEM. *:p<0.05, significant difference between TXA and Vehicle; #:p<0.05, significant difference as compared with baseline. (FIG. 11B) Lung wet/dry weight ratio. TXA was given just before trauma (BT, red), just after trauma (AT, green) and 45 min after the end of trauma (yellow). Values represent as means±SEM. *:p<0.05, significant difference as compared with vehicle. (FIG. 11C) Acute lung injury. TXA given 45 min after trauma (and 15 min prior to resuscitation). Levels of platelet and leukocytes (neutrophils and monocytes) infiltration, and C5a and neutrophil elastase in the lung as compared with FWB. *:p<0.05, significant difference between FWB and FWB/TXA; #:p<0.05, significant difference as compared with Non-R; $:p<0.05, significant difference as compared with Non-R, FWB and FWB/TXA. Values represent as means±SEM. Non-R: Non-Resuscitation; FWB: Fresh Whole Blood; TXA: Tranexamic Acid; AT: After Trauma; BT: Before Trauma.
Briefly, Sprague-Dawley rats (350-450 gram) were anesthetized with isoflurane/100% oxygen through a nosecone and allowed to breathe spontaneously. Cannulas were placed in the left femoral artery and vein for measurement of arterial blood pressure and to obtain vascular access (blood draw and resuscitation and drug administration) respectively. Polytrauma was induced by laparotomy, crush injury to the small intestines, the […], and the right leg skeletal muscle and by fracture of the right femur. In detail, a midline incision was made through the abdominal skin and underlying muscle layers. A 10-cm section of small intestines was isolated just anterior to the cecum and run gently through a clamp covered with silastic tubing with a 2-mm distance between the clamps to cause a gentle crush injury. The right and medial lobes of the liver will receive three crushes to each lobe using the same clamp. The intestines and liver were replaced, and the abdominal incision was closed with sutures in two layers. To fracture the […], a modification of a 3-point impact device was used by dropping six stainless-steel balls (65 g each) stacked together, from 36 inches through a guide tube (1 inch internal diameter) to impact on a rounded aluminum blade resting on the mid-right femur with the right leg resting on two aluminum stands, one under the hip and one under the knee. A large hemostat (5 in tongs) was used to clamp the muscle of the right leg 10 times. The crush injury was intended to cause microvascular damage, as opposed to cutting, chopping, or mincing of the tissue, which would have led to uncontrolled hemorrhage. The polytrauma was performed about 10 min followed immediately by hemorrhage. Blood volume was estimated as 6% of body weight±0.77. The rats were bled to lower mean arterial pressure to 40 mmHg within 5 min and maintained at 40 mmHg until 40% of estimated blood volume is removed. Hemorrhage is usually completed within 30 min. Hemorrhage was then discontinued, and blood pressure and heart rate will be allowed to freely compensate.
TXA was given just before trauma (BT, red), just after trauma (AT, green) and 45 min after the end of trauma (yellow). […] TXA was given 45 min after trauma (15 min prior to resuscitation).

[3] = TXA 15 min prior to FWB resuscitation at 60 min after trauma
[4] = single dose TXA 10 mg/kg prior to trauma

Structure (SMILES) | tissue wet/dry weight ratio / tissue water content and vascular permeability ([1]; HOE140 0.4 mg/kg i.v.) | wet/dry weight ratio, brain ([1]; n=4) | wet/dry weight ratio, brain ([1]; n=4, 0.4 mg/kg) | tissue wet/dry weight ratio / tissue water content and vascular permeability ([1]; HOE140 0.4 mg/kg i.v., 0.4 mg/kg) | wet/dry weight ratio, traumatized skeletal muscle ([1]; HOE140 0.4 mg/kg i.v., n=4, vehicle 4.491±0.112) | wet/dry weight ratio, intestine ([1]; HOE140 0.4 mg/kg i.v., n=4, vehicle 4.528±0.112) | fluid movement into the lung (ALI, lung wet/dry weight ratio) ([2]; TXA 10 mg/kg just after trauma and 45 min after the end of trauma) | level of C5a in the lung as compared with FWB [2, 3] | level of neutrophil elastase in the lung as compared with FWB [2, 3] | platelet and leukocyte infiltration in the lung as compared with FWB [2, 3] | circulatory plasmin activity ([2]; current study) | prothrombin time (PT) at 30 min after trauma [2, 4] | prothrombin time (PT) at 120 min after trauma [2, 4]
NC(N)=NCCC[C@@H](N)C(=O)N[C@@H](CCCN=C(N)N)C(=O)N1CCC[C@H]1C(=O)N1C[C@H](O)C[C@H]1C(=O)NCC(=O)N[C@@H](Cc1cccs1)C(=O)N[C@@H](CO)C(=O)N1Cc2ccccc2C[C@@H]1C(=O)N1[C@H](C(=O)N[C@@H](CCCN=C(N)N)C(=O)O)C[C@@H]2CCCC[C@@H]21 [Icatibant, H-D-Arg-Arg-Pro-Hyp-Gly-Thi-Ser-D-Tic-Oic-Arg-OH] | attenuated tissue wet/dry weight ratio | 4.674±0.023 | significantly declined | attenuated tissue wet/dry weight ratio; also recorded: reduced | 4.247±0.176 | 4.399±0.090 | – | – | – | – | – | – | –
NC[C@H]1CC[C@H](C(=O)O)CC1 [TXA, tranexamic acid] | – | – | – | – | – | – | reduces fluid movement into the lung | significantly reduced | significantly reduced | significantly reduced | not significantly changed | delayed elevation of prothrombin time | significantly elevated
